Square brackets hold non-standard residues; d marks the D form. Peptide text beside a SMILES is read from it.
How the values were obtained:
[1] = Plasma drug concentrations and pharmacokinetics after a single subcutaneous injection of SP peptide or SIPI-D00 peptide in SD rats; format: in vivo
Description: Route: Single back subcutaneous injection;
Dosage of the drug: SP peptide and SIPI-D00 peptide were prepared into 3.33 mg/mL solution with normal saline, the dosage of SP peptide by back subcutaneous injection was 10 mg/kg body weight, and the dosage of SIPI-D00 peptide by back subcutaneous injection was 5 mg/kg body weight. […]

[2] = test system: OVA-induced asthma model mice; experiment: Lung pathology (H&E) of OVA-induced asthma model mice; format: in vivo, BALB/c mice; settings: after 28 days
Description: (§1) The first batch: mice were divided into groups, 10 mice in each group, namely: blank control group (normal saline), model group (OVA, 20 ug/mouse), SP peptide group (administered dose of 175 µg/kg body weight/day, 350 µg/kg body weight/day, respectively), SIPI-D00 peptide group (administered dose of 175 µg/kg body weight/day, 350 µg/kg body weight/day), and dexamethasone group (administered dose of 2 mg/kg body weight/day).
(§2) Mice in the model group, SP peptide group, SIPI-D00 peptide group and dexamethasone group were sensitized by intraperitoneal injection of OVA (20 µg OVA/mice) on day 0, 7, and 14, and challenged by aerosol administration of OVA (once a day for 5 consecutive days) on day 21-25 to construct asthmatic model animals. Mice in the model group were given normal saline on days 21-28; mice in different doses of SP peptide group and SIPI-D00 peptide group were injected subcutaneously with different doses of SP and SIPI-D00 on days 19-28; mice in dexamethasone group were injected intraperitoneally with 2 mg/kg/day dexamethasone on days 21-28. At the same time, 10 mice in the blank control group were fed normally from day 0 to day 28 without any treatment, and were given normal saline as a blank control.
After 28 days, the mouse lung tissue was taken out, fixed in 4% formaldehyde, embedded in paraffin, sectioned, and stained with H&E for pathological observation.
as §1, with “ug/mice), and” for “ug/mouse),”, “SIPI-G5” for “SIPI-D00”, “weight/day),” for “weight/day), and”
(§3) At the same time, 10 mice in the blank control group were fed normally from day 0 to day 28 without any treatment, and were given normal saline as a blank control.

[3] = test system: OVA-induced asthma model mice; experiment: Lung function (inspiratory airway resistance, lung compliance) in OVA-induced allergic asthma model mice; format: in vivo, BALB/c mice; settings: for Inspiratory airway resistance / Lung compliance: n=10
Description: The second batch: mice were divided into groups, 10 mice in each group, namely: blank control group (normal saline), model group (OVA, dose of 20 ug/mouse), SP peptide group (administered dose of 87.5 µg/kg body weight/ day, 175 µg/kg body weight/day, 350 µg/kg body weight/day, respectively), SIPI-D00 peptide group (administered dose of 87.5 µg/kg body weight/day, 175 µg/kg body weight/day, 350 µg/kg body weight/day), and Dexamethasone group (administered dose of 2 mg/kg body weight/day).
as §2
On the 28th day, the mice were anesthetized with tracheal intubation and jugular vein intubation, and the inspiratory airway resistance and lung compliance were measured in each group of animals. Each animal was given fold increasing amounts of methacholine via the jugular vein: 0.025 mg/kg, 0.05 mg/kg, 0.1 mg/kg, 0.2 mg/kg. After each dose was given, the lung compliance curve was recorded continuously for 5 minutes, and the inspiratory airway resistance and lung compliance were calculated. […]
as §3

[4] = 87.5 ug/kg/day s.c., methacholine 0 mg/kg
[5] = 87.5 ug/kg/day s.c., methacholine 0.025 mg/kg
[6] = 87.5 ug/kg/day s.c., methacholine 0.05 mg/kg
[7] = 87.5 ug/kg/day s.c., methacholine 0.1 mg/kg
[8] = 87.5 ug/kg/day s.c., methacholine 0.2 mg/kg
[9] = 175 ug/kg/day s.c., methacholine 0 mg/kg
[10] = 175 ug/kg/day s.c., methacholine 0.025 mg/kg
[11] = 175 ug/kg/day s.c., methacholine 0.05 mg/kg
[12] = 175 ug/kg/day s.c., methacholine 0.1 mg/kg
[13] = 175 ug/kg/day s.c., methacholine 0.2 mg/kg
[14] = 350 ug/kg/day s.c., methacholine 0 mg/kg
[15] = 350 ug/kg/day s.c., methacholine 0.025 mg/kg
[16] = 350 ug/kg/day s.c., methacholine 0.05 mg/kg
[17] = 350 ug/kg/day s.c., methacholine 0.1 mg/kg
[18] = 350 ug/kg/day s.c., methacholine 0.2 mg/kg

## C[C@H](O)[C@@H](NC(=O)[C@@H](Cc1ccc(O)cc1)NC(=O)[C@H](NC(=O)[C@@H](CO)NC(=O)CN)[C@H](C)O)C(=O)N[C@H](CCC(N)=O)C(=O)NCC(=O)O [SIPI-D00, GSTYTQG] (H-G[dS][dT][dY][dT][dQ]G-OH)
[1]; SIPI-D00 5 mg/kg s.c., SD rats, time 0 h, parallels 1-4
  Plasma concentration: 0 ng/mL
[1]; SIPI-D00 5 mg/kg s.c., SD rats, time 0.1 h, parallels 1-4, 5 mg/kg
  Plasma concentration: 5167 ng/mL
[1]; SIPI-D00 5 mg/kg s.c., SD rats, time 0.333 h, parallels 1-4, 5 mg/kg
  Plasma concentration: 5836 ng/mL
[1]; SIPI-D00 5 mg/kg s.c., SD rats, time 0.667 h, parallels 1-4, 5 mg/kg
  Plasma concentration: 5242 ng/mL
[1]; SIPI-D00 5 mg/kg s.c., SD rats, time 2 h, parallels 1-4, 5 mg/kg
  Plasma concentration: 1185 ng/mL
[1]; SIPI-D00 5 mg/kg single subcutaneous injection, SD rats, Mean±SD
  Fa: 96.3±13.3%
[1]; male, SD, rat, plasma, sc, 5 mg/kg, SIPI-D00 5 mg/kg s.c., SD rats, time 0.1 h, parallels 1-4, read-out: Plasma concentration
  level at 0.1 h: 3580 ng/mL
[1]; male, SD, rat, plasma, sc, 5 mg/kg, SIPI-D00 5 mg/kg s.c., SD rats, time 0.167 h, parallels 1-4, read-out: Plasma concentration
  level at 0.167 h: 4720 ng/mL
[1]; male, SD, rat, plasma, sc, 5 mg/kg, SIPI-D00 5 mg/kg s.c., SD rats, time 0.333 h, parallels 1-4, read-out: Plasma concentration
  level at 0.333 h: 5890 ng/mL
[1]; male, SD, rat, plasma, sc, 5 mg/kg, SIPI-D00 5 mg/kg s.c., SD rats, time 0.667 h, parallels 1-4, read-out: Plasma concentration
  level at 0.667 h: 5260 ng/mL
[1]; male, SD, rat, plasma, sc, 5 mg/kg, SIPI-D00 5 mg/kg s.c., SD rats, time 1 h, parallels 1-4, read-out: Plasma concentration
  level at 1 h: 3940 ng/mL
[1]; male, SD, rat, plasma, sc, 5 mg/kg, SIPI-D00 5 mg/kg s.c., SD rats, time 2 h, parallels 1-4, read-out: Plasma concentration
  level at 2 h: 1160 ng/mL
[1]; male, SD, rat, plasma, sc, 5 mg/kg, SIPI-D00 5 mg/kg s.c., SD rats, time 3 h, parallels 1-4, read-out: Plasma concentration
  level at 3 h: 291 ng/mL
[1]; male, SD, rat, plasma, sc, 5 mg/kg, SIPI-D00 5 mg/kg s.c., SD rats, time 4 h, parallels 1-4, read-out: Plasma concentration
  level at 4 h: 53.5 ng/mL
[1]; male, SD, rat, plasma, sc, 5 mg/kg, SIPI-D00 5 mg/kg s.c., SD rats, time 6 h, parallels 1-4, read-out: Plasma concentration
  level at 6 h: 3.51 ng/mL
[1]; rat, in vivo, sc
  AUC compared with SP: significantly improved compared with SP
[1]; rat, in vivo, sc, 5 mg/kg
  AUC(0-t): 8820 ± 1320 ng·h/mL
  Cmax: 5910 ± 447 ng/mL
  MRT last: 57.8 ± 1.14 min
  Tmax: 12.5 ± 4.98 min
  half-life: 90 min
[2]; high-dose group (350 µg/kg body weight/day)
  lung pathology, H&E: less inflammatory cell infiltration and clear alveolar cavity
[2]; low-dose group (175 µg/kg body weight/day)
  lung pathology, H&E: more inflammatory cells infiltrating in the lungs
[2]; overall
  infiltration of inflammatory cells in the lungs, H&E: significantly reduce the infiltration of inflammatory cells
[3]; [4]
  Inspiratory airway resistance: 1.00±0.00
  Lung compliance: 1.00±0.00
[3]; [5]
  Inspiratory airway resistance: 1.32±0.32
  Lung compliance: 0.80±0.18
[3]; [6]
  Inspiratory airway resistance: 1.64±0.35
  Lung compliance: 0.64±0.14
[3]; [7]
  Inspiratory airway resistance: 1.86±0.43
  Lung compliance: 0.57±0.13
[3]; [8]
  Inspiratory airway resistance: 2.05±0.51
  Lung compliance: 0.52±0.13
[3]; [9]
  Inspiratory airway resistance: 1.00±0.00
  Lung compliance: 1.00±0.00
[3]; [10]
  Inspiratory airway resistance: 1.21±0.15
  Lung compliance: 0.84±0.10
[3]; [11]
  Inspiratory airway resistance: 1.35±0.18
  Lung compliance: 0.75±0.10
[3]; [12]
  Inspiratory airway resistance: 1.47±0.21
  Lung compliance: 0.69±0.093
[3]; [13]
  Inspiratory airway resistance: 1.58±0.34
  Lung compliance: 0.65±0.12
[3]; [14]
  Inspiratory airway resistance: 1.00±0.00
  Lung compliance: 1.00±0.00
[3]; [15]
  Inspiratory airway resistance: 1.28±0.30
  Lung compliance: 0.83±0.14
[3]; [16]
  Inspiratory airway resistance: 1.43±0.35
  Lung compliance: 0.70±0.19
[3]; [17]
  Inspiratory airway resistance: 1.61±0.47
  Lung compliance: 0.55±0.18
[3]; [18]
  Inspiratory airway resistance: 1.74±0.51
  Lung compliance: 0.49±0.19
[3]; compared with the model group
  inspiratory phase resistance (in words): significantly decreased
  lung compliance (in words): significantly increased

Reference: US20230203095A1, “BIOLOGICAL PEPTIDE FOR TREATING LUNG DISEASES AND APPLICATION THEREOF” (SHANGHAI INSTITUTE OF PHARMACEUTICAL INDUSTRY CO., LTD., priority 2019, published 2023)
